Test results as given in publication PMC9863691, “A Novel Ferroptosis Inhibitor UAMC-3203, a Potential Treatment for Corneal Epithelial Wound” (Pharmaceutics, 2022).
Converted amounts (≈) assume the structure as drawn.

Tests used:
[1] = tested on: mouse model of (multi)organ dysfunction and death; design: method as in PMID 35210435; settings: cited from earlier work
ferroptosis = tested on: ferroptosis; design: method as in PMID 30354101; settings: read-out: in vitro potency IC50 (ferroptosis); cited from earlier work
[2] = tested on: human corneal epithelial (HCE) cells; experiment: in vitro scratch assay; format: cell-based; settings: for HCE cell migration (%): 72 h, negative control 55.6 ± 17.6%
Protocol: In vitro scratch assay was performed in confluent HCE monolayer as previously reported. HCE cells were seeded on 24-well plates at 1 × 10^5 cells/well incubated for 24 h. The monolayer was scratched with sterile 10 µL pipette tips perpendicular to the lines to create a consistent cell-free area. The cells were washed three times with pre-warmed PBS to remove detached cells. The cells were then exposed to UAMC-3203 at different concentrations (10 nM, 1 µM, 10 µM, 50 µM) in serum-free DMEM (Dulbecco’s Modified Eagle Medium): F12 media that was supplemented with 1% penicillin-streptomycin solution […] penicillin, 0.1 mg/mL streptomycin (Corning, Ref 30-002-CI, Mediatech Inc., Discovery Boulevard, Manassas, VA, USA). Serum-free medium was used as a negative control, and 1.5% fetal bovine serum (FBS 10270, Gibco by Life Technologies, Carlsbad, CA, USA) supplemented medium was used as a positive control. The well plates were then transferred to Cell-IQ (CM Technologies Limited, Tampere, Finland) and maintained in standard tissue culture conditions (37 °C, 5% CO2-atmosphere).
Images were taken immediately after scratch (less than 1 h) and at 6, 12, 24, 30, 42, 48, and 72 h and analyzed by Cell-IQ analyzer. Three independent experiments were performed, using two to three wells for each stimulating condition. Cell migration (A%) was calculated as follows:(1) A%=A0−At/A0×100 where A0 and At represent the wound areas at 0 h and each timepoint, respectively.

[3] = pH 7.4
solubility in buffers = format: physicochemical; settings: for water solubility: room temperature, 72 h
Protocol: Compound UAMC-3203 was synthetized in the laboratory of Medicinal Chemistry at the University of Antwerp, as reported by Devisscher L. et al.. Solubility of UAMC-3203 was determined in 0.1 M citrate buffer (pH 5 and pH 6) and phosphate-buffered saline (PBS, Gibco, Life Technologies Limited, Paisley, UK) at pH 7.4. Excess of UAMC-3203 (10–20 mg) was added to 500 µL of buffer in glass vials that were kept at room temperature and mixed (150 rpm) for 72 h. The pH of the solutions was measured daily with calibrated pH meter (Orion Research Incorporated, Boston, MA, USA) and adjusted if needed (with 0.1 N sodium hydroxide or 0.1 N hydrochloric acid). After 72 h, samples were withdrawn and centrifuged at 13,000 rpm for 15 min. The supernatant was collected and analyzed by high-pressure liquid chromatography (HPLC) for UAMC-3203 concentration.
The quantitation of UAMC-3203 was performed with […] reverse-phase HPLC system consisting of a degasser (G1379B), multi-sampler (G1367D), a binary pump (G1312B), a thermostat (G1316B), and a diode array detector (DAD) detector (G1315C). A Zorbax Eclipse XDB-C18 (4.6 × 50 mm, 4 μm; Agilent Technologies, Santa Clara, CA, USA) column was used for the analyses. The mobile phase was composed of 0.1% […] (Sigma-Aldrich, St. Louis, MO, USA) in Milli-Q-H2O and 0.1% […] in acetonitrile (LC-MS Chromasolv, Honeywell, Riedel-de Haen, Seelze, Germany) (65:35% v/v). Isocratic analysis was performed at a flow rate of 1 mL/min. The injection volume was 5 μL, and the detection wavelength was 240 nm.

[4] = tested on: alkali burn corneal wounds in ex vivo mouse eyes; experiment: corneal epithelial wound healing in ex vivo mouse eyes; design: species or system C57BL/6 mice; settings: for initial wound area: 0–2 h after wound
Description: For the study, C57BL/6 mice (Laboratory Animal Centre, the University of Eastern Finland) were euthanized, and the eyes were excised carefully with sterile forceps and micro-scissors to avoid any damage to the cornea. The eyes were transported in ice-cold Dulbecco’s modified Eagle’s Medium/Ham’s F12 (DMEM/F-12, Gibco, Life Technologies, Carlsbad, CA, USA). Then the eyes were adhered to a Petri dish with tissue adhesive (3M Vetbond, St. Paul, MN, USA). The corneal epithelial wound was produced by placing an alkali soaked (0.5% sodium hydroxide) Whitman filter paper of 2 mm diameter on the corneal surface for 2 min, as reported earlier. After removal of the filter paper, the remaining epithelium on the alkali-exposed surface was carefully removed with a micro scalpel, and the eyes were rinsed with PBS. Pre-warmed UAMC-3203 (10 mL of 10 nM, 1µM, 10 µM, and 50 µM solutions) was added in serum-free media that was supplemented with 1% penicillin-streptomycin solution ([…], 0.1 mg/mL streptomycin) (Corning, Ref 30-002-CI, Mediatech Inc., Discovery Boulevard, Manassas, VA, USA) to the Petri dishes so that the eyes were submerged. The serum-free medium without UAMC-3203 was used as the negative control, and the medium with 10% FBS was used as the positive control. The samples were cultivated under standard tissue culture conditions (37 °C, 5% CO2-atmosphere, and 95% relative humidity) for 48 h. In order to measure the wound area, images were taken with a Zeiss Axio Scope A1 microscope (Carl Zeiss Microscopy GmbH, Oberkochen, Germany) at different time points (initial (in less than 2 h after wound), 6, 24, 30, and 48 h). For imaging, the media was removed from the dish, and 0.1% fluorescein (2 µL) was added to the corneal surface, followed by PBS (10 µL) to rinse excess fluorescein. A clean tissue was then used to soak excess fluorescein and PBS, and the medium was added again to the dish after imaging. The medium was changed after 24 h. The wound area was quantified with Fiji software.

In the case of O=S(=O)(NCCN1CCNCC1)c1ccc(NC2CCCCC2)c(NCc2ccccc2)c1 [UAMC-3203], the “efficacy compared to Fer-1” value [1] is listed as “more effective”, the IC50 (ferroptosis) is listed as 10 nM and the “HCE cell migration (%)” value ([2]; 10 nM) is listed as 84.9 ± 12.5%. For the same molecule, the “HCE cell migration (%)” value ([2]; 1 µM) was 76.6 ± 15.2%, the “cell migration compared to negative control” value ([2]; 10 µM) was “no notable difference at any time point” and the “change of scratch area” value ([2]; 50 µM) was “did not cause any changes in the scratch area”. For the same molecule, the “optimal concentration for corneal epithelial wound healing effect in vitro” value ([2]; in vitro) was 10 nM, the “Log D7.4” value [3] was 0.95 and the “solubility at pH 6.0 and 7.4 relative to pH 5.0” value (solubility in buffers) was “about 3.5 times”. It also gave a water solubility (solubility in buffers; pH 5.0, 0.1 M citrate buffer) of 36.7 ± 5.7 µM (≈ 17.3 µg/mL), a water solubility (solubility in buffers; pH 6.0, 0.1 M citrate buffer) of 127.9 ± 16.1 µM (≈ 60.3 µg/mL) and a water solubility (solubility in buffers; pH 7.4, PBS) of 127.3 ± 17.3 µM (≈ 60 µg/mL). For the same molecule, the initial wound area ([4]; 10 nM) was 2.59 ± 0.27 mm^2, the “wound area at 48 h” value ([4]; 10 nM) was 0.22 ± 0.16 mm^2 and the “wound area compared to negative control” value ([4]; 10 nM, p = 0.03) was “significantly lower wound area at 48 h”. The wound healing ([4]; 10 nM–10 µM) was greater than 85%, the “wound area compared to negative control” value ([4]; 1 µM) was “no notable difference at any time point” and the initial wound area ([4]; 1 µM) was 2.46 ± 0.42 mm^2. For the same molecule, the “wound area at 48 h” value ([4]; 1 µM) was 0.35 ± 0.3 mm^2, the initial wound area ([4]; 10 µM) was 2.44 ± 0.52 mm^2 and the “wound area at 48 h” value ([4]; 10 µM) was 0.10 ± 0.21 mm^2. For the same molecule, the “wound area compared to negative control” value ([4]; 10 µM, p ≤ 0.005) was “significant difference in wound area at 24–48 h”, the “change of corneal epithelial wound area” value ([4]; 50 µM) was “did not cause any changes in the corneal epithelial wound area” and the “optimal concentration for wound healing” value ([4]; ex vivo) was 10 µM.
